Measurements from ChEMBL document CHEMBL3593204, “Discovery of substituted 1,4-dihydroquinolines as novel class of ABCB1 modulators” (Bioorg Med Chem, 2015).
Calls of active or inactive are those of the source. No cut-off for these calls is given here.

Columns and labels:
[1] = target: T1, ATP-dependent translocase ABCB1 (Homo sapiens, UniProt P08183); experiment: Inhibition of human ABCB1 expressed in mouse L5178Y cells using rhodamine 123 as substrate assessed as ratio of fluorescent intensity in ABCB1 expressing L5178Y cells to wild type L5178Y cells at 1 uM after 20 mins by flow cytometry; type: cell-based
[2] = target: T1, ATP-dependent translocase ABCB1; experiment: Inhibition of human ABCB1 expressed in mouse L5178Y cells using rhodamine 123 as substrate assessed as ratio of fluorescent intensity in ABCB1 expressing L5178Y cells to wild type L5178Y cells at 10 uM after 20 mins by flow cytometry; type: cell-based
[3] = tested on: EPG85-257P; experiment: Induction of ABCB1 expression in human EPG85-257P cells at 10 uM after 72 hrs by Western blot analysis; type: functional, cell-based
[4] = tested on: L5178Y; experiment: Cytotoxicity against wild type mouse L5178Y cells after 48 hrs by MTT assay; type: cell-based
[5] = organism: Homo sapiens; experiment: Induction of ABCB1 expression in human EPG85-257RDB cells at 10 uM after 72 hrs by Western blot analysis; type: functional, cell-based
[6] = organism: Homo sapiens; experiment: Induction of ABCB1 expression in human EPG85-257RDB cells at 10 uM after 72 hrs by Western blot analysis in presence of daunorubicin; type: functional, cell-based
[7] = tested on: EPG85-257P; experiment: Induction of ABCB1 expression in human EPG85-257P cells at 10 uM after 72 hrs by Western blot analysis in presence of daunorubicin; type: functional, cell-based
[8] = tested on: L5178Y; experiment: Cytotoxicity against mouse L5178Y cells expressing human ABCB1 after 48 hrs by MTT assay; type: ADME, cell-based
[9] = tested on: L5178Y; experiment: Cytotoxicity against wild type mouse L5178Y cells by MTT assay; type: cell-based
[10] = tested on: A2780cisR; experiment: Induction of ABCB1/2 expression in human A2780cisR cells at 10 uM after 72 hrs by Western blot analysis; type: functional, cell-based
[11] = tested on: L5178Y; experiment: Cytotoxicity against mouse L5178Y cells expressing human ABCB1 by MTT assay; type: ADME, cell-based
[12] = target: T1, ATP-dependent translocase ABCB1; experiment: Ratio of verapamil to compound for inhibition of human ABCB1 expressed in mouse L5178Y cells using rhodamine 123 as substrate assessed as ratio of fluorescent intensity in ABCB1 expressing L5178Y cells to wild type L5178Y cells at 1 to 10 uM after 20 mins by flow cytometry; type: cell-based

T1 sequence (P08183 whole entry): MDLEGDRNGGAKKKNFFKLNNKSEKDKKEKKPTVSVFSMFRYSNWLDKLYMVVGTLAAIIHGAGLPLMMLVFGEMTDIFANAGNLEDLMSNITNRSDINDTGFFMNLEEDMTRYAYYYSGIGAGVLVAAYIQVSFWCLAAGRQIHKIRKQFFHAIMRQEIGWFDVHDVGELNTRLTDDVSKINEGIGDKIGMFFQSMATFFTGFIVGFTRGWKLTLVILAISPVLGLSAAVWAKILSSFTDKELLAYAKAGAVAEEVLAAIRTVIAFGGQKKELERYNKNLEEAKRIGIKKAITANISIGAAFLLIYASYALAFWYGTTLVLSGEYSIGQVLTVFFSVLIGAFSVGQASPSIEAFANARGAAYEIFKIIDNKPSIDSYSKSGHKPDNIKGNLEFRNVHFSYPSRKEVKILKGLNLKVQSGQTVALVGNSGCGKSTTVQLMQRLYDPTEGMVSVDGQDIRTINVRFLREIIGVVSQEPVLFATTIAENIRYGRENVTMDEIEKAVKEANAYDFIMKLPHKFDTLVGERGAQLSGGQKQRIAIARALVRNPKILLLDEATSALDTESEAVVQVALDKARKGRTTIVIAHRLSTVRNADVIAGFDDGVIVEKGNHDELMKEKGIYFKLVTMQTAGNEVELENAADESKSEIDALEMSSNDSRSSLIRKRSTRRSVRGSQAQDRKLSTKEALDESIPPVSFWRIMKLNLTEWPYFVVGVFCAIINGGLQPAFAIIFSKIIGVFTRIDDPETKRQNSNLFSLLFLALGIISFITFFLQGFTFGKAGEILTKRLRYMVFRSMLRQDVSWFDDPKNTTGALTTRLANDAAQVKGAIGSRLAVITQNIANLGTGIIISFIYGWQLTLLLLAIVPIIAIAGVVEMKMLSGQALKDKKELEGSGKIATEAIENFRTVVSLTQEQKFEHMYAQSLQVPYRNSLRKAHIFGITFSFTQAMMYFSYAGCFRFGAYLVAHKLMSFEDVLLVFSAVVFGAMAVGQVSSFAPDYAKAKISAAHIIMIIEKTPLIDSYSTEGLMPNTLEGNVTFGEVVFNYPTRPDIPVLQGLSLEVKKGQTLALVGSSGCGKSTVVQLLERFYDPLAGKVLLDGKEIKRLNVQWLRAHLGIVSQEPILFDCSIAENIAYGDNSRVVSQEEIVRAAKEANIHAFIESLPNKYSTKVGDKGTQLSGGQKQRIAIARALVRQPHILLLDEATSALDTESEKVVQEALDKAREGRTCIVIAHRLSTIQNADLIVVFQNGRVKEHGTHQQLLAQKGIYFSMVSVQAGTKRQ

Compound	Ratio [1]	Ratio [2]	also measured
CCOC(=O)C1=CN(Cc2cccc(OC)c2)c2ccccc2C1c1ccc(OC)c(OC)c1 (stereo not drawn)	2.98	15.86	Activity [3]: inactive; Activity [4]: Non-toxic; Activity [5]: inactive; Activity [6]: inactive; Activity [7]: inactive; Activity [8]: Non-toxic; IC50 [9]: > 160 µM; Activity [10]: inactive; IC50 [11]: > 160 µM
CCOC(=O)C1=CN(Cc2ccc(OC)cc2)c2ccccc2C1c1ccc(OC)cc1 (stereo not drawn)	2.55	13.66	–
CCOC(=O)C1=CN(Cc2ccc(OC)cc2)c2ccccc2C1c1cccc(OC)c1 (stereo not drawn)	2.03	10.34	–
CCOC(=O)C1=CN(Cc2ccc(OC)cc2)c2ccccc2C1c1ccc(OC)c(OC)c1 (stereo not drawn)	2.41	15.84	–
CCOC(=O)C1=CN(Cc2ccccc2)c2ccccc2C1c1ccccc1 (stereo not drawn)	1.48	4.72	–
CCOC(=O)C1=CN(Cc2cccc(OC)c2)c2ccccc2C1c1ccc(OC)cc1 (stereo not drawn)	2.23	9.95	–
COc1ccc(CCN(C)CCCC(C#N)(c2ccc(OC)c(OC)c2)C(C)C)cc1OC (stereo not drawn) [VERAPAMIL]	1.46	4.98	–

Further lines, with some results ahead:

Ratio [1]	Ratio [2]	Compound	also measured
3.63	13.36	CCOC(=O)C1=CN(Cc2ccc(OC)cc2)c2ccccc2C1c1cc(OC)cc(OC)c1 (stereo not drawn)	–
3.42	12.77	CCOC(=O)C1=CN(Cc2ccccc2)c2ccccc2C1c1ccc(OC)c(OC)c1 (stereo not drawn)	Activity [4]: Non-toxic; Activity [8]: Non-toxic; IC50 [9]: > 160 µM; Ratio [12]: 2.5; IC50 [11]: > 160 µM
2.71	13.11	CCOC(=O)C1=CN(Cc2cccc(OC)c2)c2ccccc2C1c1cc(OC)cc(OC)c1 (stereo not drawn)	–
2.96	10.5	CCOC(=O)C1=CN(Cc2ccccc2)c2ccccc2C1c1cc(OC)cc(OC)c1 (stereo not drawn)	–
2.26	9.68	CCOC(=O)C1=CN(Cc2cccc(OC)c2)c2ccccc2C1c1cccc(OC)c1 (stereo not drawn)	–
